Like-named read-outs stand apart in the source and are kept apart here.

For assay [1], the system named is mitochondrial membrane potential. The assay is classed as cell-based, mouse. The settings on record: for ΔΨm (composite Z-score): normalized score vs mock-treated (DMSO) wells.
Assay [2] concerns reactive oxygen species. The assay is classed as cell-based, mouse. The settings on record: for ROS (composite Z-score): normalized score vs mock-treated (DMSO) wells.
In assay [3] the test system is OXPHOS gene expression. The class given is cell-based, mouse. The settings on record: for GE-HTS (composite Z-score): normalized score vs mock-treated (DMSO) wells.
Assay [4] has as its system nuOXPHOS transcripts. The class given is cell-based, mouse. The following applies: for nucOX (composite Z-score): normalized score vs mock-treated (DMSO) wells.
The test system of assay [5] is mtOXPHOS transcripts. The class given is cell-based, mouse. The following applies: for mitoOX (composite Z-score): normalized score vs mock-treated (DMSO) wells.
The test system of assay [6] is cytochrome c. The assay is classed as cell-based, mouse. The following applies: for cyt c (composite Z-score): normalized score vs mock-treated (DMSO) wells.
cytochrome c, sequence (P62897 whole entry): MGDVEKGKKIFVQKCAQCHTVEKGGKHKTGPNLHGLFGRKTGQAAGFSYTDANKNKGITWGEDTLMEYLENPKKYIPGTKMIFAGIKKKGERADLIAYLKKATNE
In assay [7] the test system is C2C12 myotubes. The following applies: for Viability (composite Z-score): normalized score vs mock-treated (DMSO) wells.
The subject of assay [8] is cellular dehydrogenase activity. The settings on record: for MTT (composite Z-score): normalized score vs mock-treated (DMSO) wells.
Where [9] appears, read: normalized composite Z-score vs mock-treated (DMSO) wells, Conc 20 μM.
[10] abbreviates: composite Z-score vs mock-treated (DMSO) wells, Conc 20 μM.
[11] abbreviates: composite Z-score vs DMSO, Conc 20 μM.
Setting [12] is: Table 5, C2C12 myotubes, 48 h, composite Z-score.
Where [13] appears, read: composite Z-score vs DMSO wells, Conc 20 μM.

`CC(=O)O[C@@H]1CC2C(C)(C)C(=O)CC[C@]2(C)C2CC[C@]3(C)C(=CC(=O)O[C@H]3c3ccoc3)[C@@]21C` (stereo partly drawn) [dihydrodeoxygedunin] gave a ΔΨm in assay [1] (setting [9]) of 0.443. The compound also returned an ROS in assay [2] (setting [9]) of 1.030. Besides, in assay [3] (setting [9]), the GE-HTS is −1.009. Moreover, in assay [4] (setting [9]), the nucOX is listed as −1.073. Further, the mitoOX in assay [5] (setting [9]) is reported as −0.631. Further, the cyt c in assay [6] (setting [9]) worked out at 0.751. In assay [7] (setting [9]), the Viability is listed as −0.004. In assay [8] (setting [9]), the MTT is reported as −0.637.

As to `CC(=O)Oc1cc(-c2coc3cc(OC(C)=O)c(OC(C)=O)c(OC(C)=O)c3c2=O)cc(OC(C)=O)c1OC(C)=O` [iriginol hexaaceatate], the ΔΨm in assay [1] (setting [10]) was −0.204. In assay [2] (setting [10]), this compound registered an ROS of 0.815. The compound further came in with a GE-HTS in assay [3] (setting [10]) of 0.928. In assay [4] (setting [10]), this compound displayed a nucOX of 0.859. The mitoOX in assay [5] (setting [10]) was determined as 0.938. The same compound yielded a cyt c in assay [6] (setting [10]) of −0.315. In addition, the Viability in assay [7] (setting [10]) was −0.291. Moreover, in assay [8] (setting [10]), the MTT is given as −0.565.

As to `COc1ccc2cc([C@H](C)CO)ccc2c1` [naproxol], in assay [1] (setting [11]), the ΔΨm was −0.500. Besides, the ROS in assay [2] (setting [11]) is −0.319. Besides, the GE-HTS in assay [3] (setting [11]) is listed as −0.895. Further, in assay [4] (setting [11]), the nucOX is −1.214. In addition, in assay [5] (setting [11]), the mitoOX is recorded as −0.018. Moreover, the cyt c in assay [6] (setting [11]) was 0.993. In addition, the Viability in assay [7] (setting [11]) worked out at 0.249. The MTT in assay [8] (setting [11]) was −1.522.

Turning to `O=C(O)Cc1cc(I)c(Oc2cc(I)c(O)c(I)c2)c(I)c1` [tetrac], in assay [1] (Conc 20 μM), the “ΔΨm (composite Z-score)” value was −1.457. The “ROS (composite Z-score)” value in assay [2] (Conc 20 μM) was found to be 2.718. Besides, the “GE-HTS (composite Z-score)” value in assay [3] (Conc 20 μM) was determined as 0.811. In assay [4] (Conc 20 μM), the “nucOX (composite Z-score)” value turned out to be 0.714. Moreover, the “mitoOX (composite Z-score)” value in assay [5] (Conc 20 μM) was 0.898. The “cyt c (composite Z-score)” value in assay [6] (Conc 20 μM) was determined as 0.674. The “Viability (composite Z-score)” value in assay [7] (Conc 20 μM) is on record as 1.361. For the same compound, in assay [8] (Conc 20 μM), the “MTT (composite Z-score)” value is given as −0.677.

For `COc1cc([C@@H]2c3cc4c(cc3[C@H](O)[C@H]3COC(=O)[C@@H]23)OCO4)cc(OC)c1OC` [picropodophyllotoxin, reference compound], the ΔΨm in assay [1] (setting [11]) was −0.349. Moreover, in assay [2] (setting [12]), the “ROS Zscore” value was −1.202. Further, in assay [2] (setting [11]), the ROS is recorded as −1.202. This compound also gave a GEHTS_Zscore in assay [3] (setting [12]) of 2.259. The compound also had a GE-HTS in assay [3] (setting [11]) of 1.512. The nucOX in assay [4] (setting [11]) is reported as 1.581. Further, in assay [5] (setting [11]), the mitoOX worked out at 1.129. Moreover, the cyt c in assay [6] (setting [11]) is reported as −1.445. In addition, the Viability in assay [7] (setting [11]) is recorded as −0.107. In assay [8] (setting [11]), this compound gave an MTT of −2.402.

Consider `CCC(C)C(=O)O[C@@H]1C[C@@]2(C)[C@H](c3ccoc3)OC(=O)CC23OC2(C)OC34[C@H](OC(=O)C(C)C)[C@@]3(O)[C@@H](OC(=O)C5(C)OC5C)[C@@]5(C)C[C@]3(O)[C@@](C)([C@H]5CC(=O)OC)C14O2` (stereo partly drawn) [entandrophragmin], for which, in assay [1] (setting [10]), the ΔΨm was found to be 0.113. In assay [2] (setting [10]), this compound gave an ROS of 1.351. The compound further showed a GE-HTS in assay [3] (setting [10]) of 0.467. Also, the nucOX in assay [4] (setting [10]) is recorded as 0.149. The compound further had a mitoOX in assay [5] (setting [10]) of 1.061. The compound further gave a cyt c in assay [6] (setting [10]) of −0.703. This compound also gave a Viability in assay [7] (setting [10]) of 0.672. Moreover, the MTT in assay [8] (setting [10]) was −0.737.

For the compound `COc1ccc(/C=C/C(=O)O)cc1OC` [dimethylcaffeic acid], in assay [1] (Conc 20 μM), the “ΔΨm (composite Z-score)” value is on record as −0.061. Moreover, the “ROS (composite Z-score)” value in assay [2] (Conc 20 μM) is −0.142. Further, the “GE-HTS (composite Z-score)” value in assay [3] (Conc 20 μM) is on record as −0.924. The “nucOX (composite Z-score)” value in assay [4] (Conc 20 μM) was −0.838. Further, the “mitoOX (composite Z-score)” value in assay [5] (Conc 20 μM) is −0.885. The “cyt c (composite Z-score)” value in assay [6] (Conc 20 μM) worked out at 0.804. Moreover, the “Viability (composite Z-score)” value in assay [7] (Conc 20 μM) amounted to 0.147. For the same compound, in assay [8] (Conc 20 μM), the “MTT (composite Z-score)” value is given as −1.206.

Take ginkgolic acid: the ΔΨm in assay [1] (setting [11]) is −0.905. Further, the ROS in assay [2] (setting [11]) was −0.116. The compound further came in with a GE-HTS in assay [3] (setting [11]) of −0.062. Further, in assay [4] (setting [11]), the nucOX was −0.315. In assay [5] (setting [11]), this compound returned a mitoOX of 0.505. The same compound returned a cyt c in assay [6] (setting [11]) of 0.587. Moreover, the Viability in assay [7] (setting [11]) is listed as −0.686. This compound came in with an MTT in assay [8] (setting [11]) of −0.461.

On to `Oc1cccc2cccnc12` [oxyquinoline], for which the ΔΨm in assay [1] is on record as −0.867. Moreover, the ROS in assay [2] is recorded as 0.684. In assay [3], the GE-HTS was 0.534. This compound displayed a nucOX in assay [4] of 0.526. This compound also yielded a mitoOX in assay [5] of 0.435. In addition, in assay [6], the cyt c is given as −0.121. Further, in assay [7], the Viability is recorded as −1.140. The compound also displayed an MTT in assay [8] of −0.815.

For `C=CC(C)(O)CCC=C(C)C` (single isomer, unassigned; (+)) [(+)-linalool], the “ΔΨm (composite Z-score)” value in assay [1] (Conc 20 μM) is −0.810. Also, in assay [2] (Conc 20 μM), the “ROS (composite Z-score)” value is reported as 0.481. Further, the “GE-HTS (composite Z-score)” value in assay [3] (Conc 20 μM) is listed as −0.007. Moreover, the “nucOX (composite Z-score)” value in assay [4] (Conc 20 μM) amounted to 0.131. The “mitoOX (composite Z-score)” value in assay [5] (Conc 20 μM) is −0.342. The “cyt c (composite Z-score)” value in assay [6] (Conc 20 μM) stood at 0.690. For the same compound, the “Viability (composite Z-score)” value in assay [7] (Conc 20 μM) was −0.653. In addition, in assay [8] (Conc 20 μM), the “MTT (composite Z-score)” value is −1.338.

For the compound `CCn1cc(C(=O)O)c(=O)c2cnc(N3CCNCC3)nc21` [pipemidic acid], in assay [1] (setting [13]), the ΔΨm is on record as −0.736. Moreover, the ROS in assay [2] (setting [13]) worked out at 0.010. The same compound registered a GE-HTS in assay [3] (setting [13]) of 0.045. The nucOX in assay [4] (setting [13]) was determined as 0.264. In assay [5] (setting [13]), the mitoOX was −0.333. The results for the cyt c in assay [6] and in assay [6] (setting [13]) were 0.101 and 0.140, respectively. For the same compound, the Viability in assay [7] (setting [13]) was −0.716. In assay [8] (setting [13]), this compound showed an MTT of −0.367.

For `COC(=O)C[C@H]1C(C)(C)C(=O)[C@@H]2CC3=C(CC[C@]4(C)C3=CC(=O)O[C@H]4c3ccoc3)[C@@]1(C)C2=O` [carapin-8 (9)-ene], the “ΔΨm (composite Z-score)” value in assay [1] (Conc 20 μM) is on record as −0.223. Moreover, the “ROS (composite Z-score)” value in assay [2] (Conc 20 μM) is 0.766. In addition, the “GE-HTS (composite Z-score)” value in assay [3] (Conc 20 μM) stood at 0.121. Further, the “nucOX (composite Z-score)” value in assay [4] (Conc 20 μM) is recorded as −0.003. For the same compound, the “mitoOX (composite Z-score)” value in assay [5] (Conc 20 μM) is reported as 0.284. In assay [6] (Conc 20 μM), the “cyt c (composite Z-score)” value came to 0.412. Also, the “Viability (composite Z-score)” value in assay [7] (Conc 20 μM) was 1.357. In assay [8] (Conc 20 μM), the “MTT (composite Z-score)” value was −1.272.

For `C[C@]12CC[C@H]3C(=CCc4cc(O)ccc43)[C@@H]1CCC2=O` [equilin], the ΔΨm in assay [1] is given as −0.408. In assay [2], this compound came in with an ROS of 0.259. In assay [3], this compound returned a GE-HTS of −0.626. In addition, in assay [4], the nucOX was −0.538. Besides, the mitoOX in assay [5] is recorded as −0.676. For the same compound, the cyt c in assay [6] was −0.069. Besides, the Viability in assay [7] is −0.882. The compound also gave an MTT in assay [8] of −2.270.

In assay [1] (setting [9]), `CCCCCC1C(=O)CCC1CC(=O)O` (stereo not drawn) [dihydrojasmonic acid] had a ΔΨm of −0.294. In assay [2] (setting [9]), this compound gave an ROS of 0.827. In assay [3] (setting [9]), this compound registered a GE-HTS of −0.313. The nucOX in assay [4] (setting [9]) is recorded as −0.168. Also, in assay [5] (setting [9]), the mitoOX is listed as −0.505. Further, the cyt c in assay [6] (setting [9]) is listed as −0.847. Also, the Viability in assay [7] (setting [9]) is −1.223. The MTT in assay [8] (setting [9]) is −0.149.

On to `COc1ccc(-c2coc3cc(O)ccc3c2=O)c(OC)c1O` [koparin 2′-methyl ether], for which the ΔΨm in assay [1] (setting [11]) was −0.442. In assay [2] (setting [11]), the ROS came out at 0.126. Moreover, the GE-HTS in assay [3] (setting [11]) is −1.151. This compound also gave a nucOX in assay [4] (setting [11]) of −1.461. In addition, the mitoOX in assay [5] (setting [11]) is −0.309. Also, the cyt c in assay [6] (setting [11]) is 0.007. The compound further yielded a Viability in assay [7] (setting [11]) of 0.024. The MTT in assay [8] (setting [11]) is reported as −0.532.

The values above are taken from patent US20090143279A1 (priority 2007, published 2009).
